The record followed here is ChEMBL document CHEMBL5321293, “Discovery of ERD-3111 as a Potent and Orally Efficacious Estrogen Receptor PROTAC Degrader with Strong Antitumor Activity” (J Med Chem, 2023).

SMILES strings stand for the structures. A value given as a limit tells only on which side of the number the result lay.

The nature of data set [1]: Half life in Sprague-Dawley rat at 3 mg/kg, po and measured upto 24 hrs by LC-MS/MS analysis. Conditions: in vivo.
The nature of data set [2]: Half life in ICR mouse at 3 mg/kg, po and measured upto 24 hrs by LC-MS/MS analysis. Format: ADME, organism-based. Conditions: in vivo.
A short description of data set [3]: Oral bioavailability in Beagle dog at 1 mg/kg and measured upto 24 hrs by LC-MS/MS analysis. The class given is ADME, organism-based, Canis lupus familiaris. The following applies: in vivo.
A short description of data set [4]: Metabolic stability in rat liver microsomes assessed as half life at 1 uM and measured upto 60 mins in presence of NADPH by LC-MS/MS analysis. The class given is ADME, Microsome. Background: Microsomes from liver hold many membrane-bound enzymes, among them those of drug oxidation.
The target in another data set is T1, Cytochrome P450 1A2 (Homo sapiens, UniProt P05177).
T1 sequence (P05177 whole entry): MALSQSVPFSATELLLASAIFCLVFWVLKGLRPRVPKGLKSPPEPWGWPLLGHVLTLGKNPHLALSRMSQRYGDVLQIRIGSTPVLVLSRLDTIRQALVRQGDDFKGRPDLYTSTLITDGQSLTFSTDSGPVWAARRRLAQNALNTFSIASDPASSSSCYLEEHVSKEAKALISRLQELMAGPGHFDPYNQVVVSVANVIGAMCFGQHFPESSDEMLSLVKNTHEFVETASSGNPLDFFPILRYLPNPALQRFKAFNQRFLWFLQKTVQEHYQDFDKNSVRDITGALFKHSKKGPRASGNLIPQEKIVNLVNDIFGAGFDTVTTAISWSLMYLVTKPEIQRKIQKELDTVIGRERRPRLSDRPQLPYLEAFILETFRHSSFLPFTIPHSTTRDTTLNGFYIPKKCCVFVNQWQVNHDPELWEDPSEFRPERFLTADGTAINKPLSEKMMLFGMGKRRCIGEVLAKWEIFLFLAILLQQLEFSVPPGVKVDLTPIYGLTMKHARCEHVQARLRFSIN
The data set is described as follows: Inhibition of CYP1A2 in human liver microsomes preincubated for 5 mins in presence substrate followed by NADPH addition and measured after 10 mins by LC-MS/MS analysis. Format: ADME, Microsome.

Data set [5] in a line: Drug concentration in plasma of CB17 SCID mouse xenografted with human MCF7 cells harboring wild type ESR1 at 10 mg/kg, po qd for 3 days and measured after 24 hrs last dose by LC-MS/MS analysis. Format: ADME, organism-based. Conditions: time 3 day. In general terms: A xenograft is tissue or cells of one species grown in another, often human tumour cells in immunodeficient mice.

Data set [6] can be described thus: Drug concentration in plasma of CB17 SCID mouse xenografted with human MCF7 cells harboring wild type ESR1 at 30 mg/kg, po qd for 3 days and measured after 24 hrs last dose by LC-MS/MS analysis. Format: ADME, organism-based. Conditions: time 3 day.
Data set [7] can be described thus: Drug concentration in tumor of CB17 SCID mouse xenografted with human MCF7 cells harboring wild type ESR1 at 30 mg/kg, po qd for 3 days and measured after 24 hrs last dose by LC-MS/MS analysis. The following applies: time 3 day, read-out: Ct. Format: ADME, organism-based, Neoplasm.
The nature of data set [8]: Drug concentration in tumor of CB17 SCID mouse xenografted with human MCF7 cells harboring ESR1 Y537S mutant at 10 mg/kg, po qd for 3 days and measured after 6 hrs last dose by LC-MS/MS analysis. The class given is ADME, organism-based, Neoplasm. Conditions: time 3 day, read-out: Ct.
Data set [9] in a line: Drug concentration in plasma of CB17 SCID mouse xenografted with human MCF7 cells harboring ESR1 D538G mutant at 10 mg/kg, po qd for 3 days and measured after 6 hrs last dose by LC-MS/MS analysis. Format: ADME, organism-based. The following applies: time 3 day.
Data set [10] in a line: Toxicity in CB17 SCID mouse xenografted with human MCF7 cells harboring wild type ESR1 assessed as body weight change at 10 mg/kg,po qd for 5 weeks. The class given is organism-based. The following applies: in vivo, 840 h.
A short description of data set [11]: Toxicity in CB17 SCID mouse xenografted with human MCF7 cells harboring wild type ESR1 assessed as body weight change at 30 mg/kg,po qd for 5 weeks. Format: organism-based. Conditions: in vivo, 840 h.
The nature of data set [12]: Toxicity in CB17 SCID mouse xenografted with human MCF7 cells harboring ESR1 Y537S mutant assessed as body weight change at 30 mg/kg,po qd for 4 weeks. The class given is organism-based. Conditions: in vivo, 672 h.

For `C[C@@H]1Cc2c(ccc3[nH]ncc23)[C@@H](c2c(F)cc(N3CCC4(CCN(C(=O)CN5Cc6cc7c(cc6C5)C(=O)N(C5CCC(=O)NC5=O)C7=O)CC4)CC3)cc2F)N1CC(F)F` (stereo partly drawn), in data set [1], the half-life – broadly, how long it takes for the measured level to halve – at 24 h was 240 min. Further, the half-life in [2] was 384 min. Also, the bioavailability (usually the share of a dose that reaches the circulation, judged against a reference dose that is usually intravenous) in [3] was 66%. The half-life at 1 µM in [4] is greater than 60 min. The IC50 (as a rule, the midpoint of a concentration-inhibition curve) on Cytochrome P450 1A2 was greater than 10 µM. Moreover, the concentration at 72 h was found to be 18 ng/mL in data set [5]; 80 ng/mL in [6]; 413 ng/mL in data set [7]; 692 ng/mL in data set [8]; 609 ng/mL in data set [9]. For the same molecule, the Activity entry in data set [10], in data set [11] and in [12] was “Non-Toxic” in each case.
